In patent EP3789378A1, “PIPERIDINES OR PIPERIDONES SUBSTITUTED WITH UREA AND HETEROARYL” (Grünenthal GmbH, priority 2019, dated 2021):
Structures can show the parent of a compound that is named as a salt.

target: T1, h FPR2 (Homo sapiens, UniProt P25090); experiment: Agonistic activity in hFPR2-Aq-CHO cells (FLIPR Calcium 5 fluorescence assay); assay type: cell-based; settings: 11 point half log dilution, final assay concentration from 10µM
T1 construct: expressed in transfected cells
T1 sequence (P25090 1-351): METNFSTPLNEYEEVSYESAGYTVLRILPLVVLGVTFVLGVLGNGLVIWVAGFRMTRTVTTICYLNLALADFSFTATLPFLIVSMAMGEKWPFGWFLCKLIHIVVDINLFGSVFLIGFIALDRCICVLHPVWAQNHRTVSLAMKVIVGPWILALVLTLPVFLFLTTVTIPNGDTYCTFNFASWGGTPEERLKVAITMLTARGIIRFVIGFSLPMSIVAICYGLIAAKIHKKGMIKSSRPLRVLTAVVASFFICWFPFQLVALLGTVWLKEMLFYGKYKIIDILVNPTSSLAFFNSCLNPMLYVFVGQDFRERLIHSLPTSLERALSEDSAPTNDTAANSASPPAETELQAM
Summary of the method: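 EC50 reflects the compound-evoked rise in Calcium 5 fluorescence over basal, recorded for 5 min on FLIPR and compared with no-compound wells. Dye-loaded hFPR2-Aq-CHO cells received half-log dilutions from 10 µM to 100 pM final in pH 7.4 HBSS buffer.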

| SMILES | EC50 |
| --- | --- |
| COc1ccc([C@@H]2CN(C(=O)C3CCN(C)CC3)CC[C@H]2NC(=O)Nc2ccc(Cl)cc2)nc1 (single isomer, unassigned) [Ex-188, trans-1-(4-chlorophenyl)-3-[3-(5-methoxypyridin-2-yl)-1-(1-methylpiperidine-4-carbonyl)piperidin-4-yl]urea] | 29 nM |
| CN1CCC(C(=O)N2CC[C@@H](NC(=O)Nc3ccc(Cl)cc3)[C@H](c3ccc(Cl)s3)C2)CC1 (relative stereo) [Ex-104, trans-1-(4-chloro-phenyl)-3-[3-(5-chloro-thiophen-2-yl)-1-(1-methyl-piperidine-4-carbonyl)-piperidin-4-yl]-urea] | 6 nM |
| COCCN1CC[C@@H](NC(=O)Nc2ccc(C#N)cc2)[C@H](c2ccc(OC)cn2)C1 (relative stereo) [Ex-154, trans-1-(4-Cyano-phenyl)-3-[1-(2-methoxy-ethyl)-3-(5-methoxy-pyridin-2-yl)-piperidin-4-yl]-urea] | 10 nM |
| O=C(Nc1ccccc1)N[C@@H]1CCN(C(=O)C2CCNCC2)C[C@H]1c1ccc(Cl)cn1 (relative stereo) [Ex-167, trans-1-[3-(5-Chloro-pyridin-2-yl)-1-(piperidine-4-carbonyl)-piperidin-4-yl]-3-phenyl-urea] | 85 nM |
| O=C(Nc1ccccc1)N[C@@H]1CCN(CC(F)F)C[C@H]1c1ccc(Cl)cn1 (relative stereo) [Ex-153, trans-1-[3-(5-Chloro-pyridin-2-yl)-1-(2,2-difluoro-ethyl)-piperidin-4-yl]-3-phenyl-urea] | 12 nM |
| COc1ccc([C@@H]2CN(CC(F)F)CC[C@H]2NC(=O)Nc2ccccc2)nc1 (relative stereo) [Ex-150, trans-1-[1-(2,2-Difluoro-ethyl)-3-(5-methoxy-pyridin-2-yl)-piperidin-4-yl]-3-phenyl-urea] | 3 nM |
| COCCC(=O)N1CC[C@@H](NC(=O)Nc2ccc(Cl)cc2)[C@H](c2ccc(OC)cn2)C1 (relative stereo) [Ex-79, trans-1-(4-chlorophenyl)-3-[5-methoxy-1'-(3-methoxy-propionyl)-1',2',3',4',5',6'-hexahydro-[2,3']bipyridinyl-4'-yl]-urea] | 23 nM |
| COc1ccc([C@@H]2CN(C(=O)CCN(C)C)CC[C@H]2NC(=O)Nc2ccc(Cl)cc2)nc1 (relative stereo) [Ex-95, trans-1-(4-chloro-phenyl)-3-[1'-(3-dimethylamino-propionyl)-5-methoxy-1',2',3',4',5',6'-hexahydro-[2,3']bipyridinyl-4'-yl]-urea] | 12 nM |
| COc1ccc([C@@H]2CN(C3COC3)CC[C@H]2NC(=O)Nc2ccc(Cl)cc2)nc1 (relative stereo) [Ex-108, trans-1-(4-chloro-phenyl)-3-(5-methoxy-1'-oxetan-3-yl-1',2',3',4',5',6'-hexahydro-[2,3']bipyridinyl-4'-yl)-urea] | 7 nM |
| COc1ccc([C@@H]2CN(C(=O)C3COC3)CC[C@H]2NC(=O)Nc2ccc(Cl)cc2)nc1 (relative stereo) [Ex-92, trans-1-(4-chloro-phenyl)-3-[5-methoxy-1'-(oxetane-3-carbonyl)-1',2',3',4',5',6'-hexahydro-[2,3']bipyridinyl-4'-yl]-urea] | 4 nM |
| O=C(Nc1ccc(Cl)cc1)N[C@@H]1CCN(CCCO)C[C@H]1c1ccc(Cl)s1 (relative stereo) [Ex-105, trans-1-(4-chloro-phenyl)-3-[3-(5-chloro-thiophen-2-yl)-1-(3-hydroxy-propyl)-piperidin-4-yl]-urea] | 11 nM |
| Cc1cc(NC(=O)N[C@@H]2CCN(c3cccnn3)C[C@H]2c2ccc(Cl)cn2)sn1 (relative stereo) [Ex-32, trans-1-(5-chloro-1'-pyridazin-3-yl-1',2',3',4',5',6'-hexahydro-[2,3']bipyridinyl-4'-yl)-3-(3-methyl-isothiazol-5-yl)-urea] | 3 nM |
| COC1CCC(CN2CC[C@@H](NC(=O)Nc3ccc(Cl)cc3)[C@H](c3ccc(Cl)s3)C2)CC1 (relative stereo) [Ex-116, trans-1-(4-chloro-phenyl)-3-[3-(5-chloro-thiophen-2-yl)-1-(4-methoxy-cyclohexylmethyl)-piperidin-4-yl]-urea] | 9 nM |

The remaining lines, values ahead:

| EC50 | SMILES |
| --- | --- |
| 0.06 nM | COc1ccc([C@@H]2CN(CC(F)F)CC[C@H]2NC(=O)Nc2ccc(Cl)cc2)nc1 (single isomer, unassigned) [Ex-35, trans-1-(4-chlorophenyl)-3-[1-(2,2-difluoroethyl)-3-(5-methoxypyridin-2-yl)piperidin-4-yl]urea] |
| 0.4 nM | COc1ccc([C@@H]2CN(CC3(O)CCC3)CC[C@H]2NC(=O)Nc2ccc(Cl)cc2)nc1 (relative stereo) [Ex-220, trans-1-(4-chloro-phenyl)-3-[1'-(1-hydroxy-cyclobutylmethyl)-5-methoxy-1',2',3',4',5',6'-hexahydro-[2,3']bipyridinyl-4'-yl]-urea] |
| 0.9 nM | COc1ccc([C@@H]2CN(Cc3cnn(S(C)(=O)=O)c3)CC[C@H]2NC(=O)Nc2ccc(C#N)cc2)nc1 (relative stereo) [Ex-140, trans-1-(4-Cyano-phenyl)-3-[3-(5-methoxy-pyridin-2-yl)-1-[(1-methylsulfonyl-1H-pyrazol-4-yl)-methyl]-piperidin-4-yl]-urea] |
| 0.3 nM | CNC(=O)CN1CC[C@H](NC(=O)Nc2ccc(Cl)cc2)[C@@H](c2ccc(OC)cn2)C1 [Ex-215] |
| 1.2 nM | COc1ccc([C@@H]2CNCC[C@H]2NC(=O)Nc2ccc(Cl)cc2)nc1 (relative stereo) [Ex-112, trans-1-(4-chlorophenyl)-3-[3-(5-methoxypyridin-2-yl)piperidin-4-yl]urea] |
| 0.2 nM | O=C(Nc1ccc(Cl)cc1)N[C@@H]1CCN(CC2CCNCC2)C[C@H]1c1ccc(Cl)s1 (single isomer, unassigned) [Ex-83, trans-1-(4-chlorophenyl)-3-[3-(5-chlorothiophen-2-yl)-1-(piperidin-4-ylmethyl)piperidin-4-yl]urea dihydrochloride] |
| 2 nM | Cc1cc(NC(=O)N[C@@H]2CCN(c3ccncn3)C[C@H]2c2ccc(Cl)cn2)sn1 (relative stereo) [Ex-13, trans-1-(5-chloro-1'-pyrimidin-4-yl-1',2',3',4',5',6'-hexahydro-[2,3']bipyridinyl-4'-yl)-3-(3-methyl-isothiazol-5-yl)-urea] |
| 1.4 nM | COc1ccc([C@@H]2CN(CC(C)(C)O)CC[C@H]2NC(=O)Nc2cc(C)ns2)nc1 (single isomer, unassigned) [Ex-177, trans-1-[1-(2-Hydroxy-2-methyl-propyl)-3-(5-methoxy-pyridin-2-yl)-piperidin-4-yl]-3-(3-methyl-isothiazol-5-yl)-urea] |
| 0.7 nM | COc1ccc([C@@H]2CN(CC(C)(C)O)CC[C@H]2NC(=O)Nc2ccc(Cl)cc2)nc1 (single isomer, unassigned) [Ex-179, trans-1-(4-Chlorophenyl)-3-[1-(2-hydroxy-2-methyl-propyl)-3-(5-methoxy-pyridin-2-yl)-piperidin-4-yl]-urea] |
| 0.2 nM | Cc1cc(CN2CC[C@@H](NC(=O)Nc3ccc(Cl)cc3)[C@H](c3ccc(Cl)cn3)C2)no1 (single isomer, unassigned) [Ex-22, trans-1-(4-chlorophenyl)-3-[3-(5-chloropyridin-2-yl)-1-[(5-methyl-1,2-oxazol-3-yl)methyl]piperidin-4-yl]urea] |
| 2 nM | COc1ccc([C@@H]2CN(CCCO)CC[C@H]2NC(=O)Nc2ccc(Cl)cc2)nc1 (relative stereo) [Ex-103, trans-1-(4-chloro-phenyl)-3-[1'-(3-hydroxy-propyl)-5-methoxy-1',2',3',4',5',6'-hexahydro-[2,3']bipyridinyl-4'-yl]-urea] |
| 0.16 nM | COc1ccc([C@@H]2CN(CC3CC3)CC[C@H]2NC(=O)Nc2ccc(Cl)cc2)nc1 (relative stereo) [Ex-127, trans-1-(4-Chlorophenyl)-3-[1-(cyclopropyl-methyl)-3-(5-methoxy-pyridin-2-yl)-piperidin-4-yl]-urea] |

same assay, conditions: agonistic response at 0.1µM

| activation at 0.1 µM | h FPR2 FLIPR % @0.1µM | SMILES |
| --- | --- | --- |
| 19% | – | O=C(Nc1ccc(Cl)cc1)N[C@@H]1CCN(CC2CCOCC2)C[C@H]1c1ccc(Cl)s1 (relative stereo) [Ex-86, trans-1-(4-chlorophenyl)-3-(3-(5-chlorothiophen-2-yl)-1-((tetrahydro-2H-pyran-4-yl)methyl)piperidin-4-yl)urea] |
| 26% | – | COc1ccc([C@@H]2CN(Cc3ccn(S(C)(=O)=O)n3)CC[C@H]2NC(=O)Nc2ccccc2)nc1 (relative stereo) [Ex-59, trans-3-[1-[(1-methanesulfonyl-1H-pyrazol-3-yl)methyl]-3-(5-methoxypyridin-2-yl)piperidin-4-yl]-1-phenylurea] |
| 10% | – | COc1ccc([C@@H]2CN(Cc3ccn(C)n3)CC[C@H]2NC(=O)Nc2ccc(Cl)cc2)nc1 (relative stereo) [Ex-40, trans-1-(4-chlorophenyl)-3-[3-(5-methoxypyridin-2-yl)-1-[(1-methyl-1H-pyrazol-3-yl)methyl]piperidin-4-yl]urea] |
| – | 40%@0.1µM | COc1ccc([C@@H]2CN(CC3CCOCC3)CC[C@H]2NC(=O)Nc2ccc(Cl)cc2)nc1 (relative stereo) [Ex-50, trans-1-(4-chlorophenyl)-3-[(5-methoxypyridin-2-yl)-1-(oxan-4-ylmethyl)piperidin-4-yl]urea] |
| 0.2% | – | COc1ccc([C@@H]2CN(CC(C)(C)O)CC[C@H]2NC(=O)Nc2ccc(Cl)cc2)nc1 (relative stereo) [Ex-178, trans-1-(4-Chlorophenyl)-3-[1-(2-hydroxy-2-methyl-propyl)-3-(5-methoxy-pyridin-2-yl)-piperidin-4-yl]-urea] |
